Measured values taken from US7070941B2, “Methods and compositions for tagging via azido substrates” (Board of Regents, The University of Texas System, priority 2003, dated 2006).

Columns and labels:
[1] = system: Ras; assay: Ras localisation, cytosol versus membrane association; format: cell-based; conditions: for membrane association of Ras: cells treated with lovastatin plus azido-farnesyl substrate
Excerpt: Farnesylated Ras protein is plasma-membrane associated while the unprocessed isoform is mainly located in cytosol.

[2] = system: Ras; assay: mobility-shift assay of Ras in labeled COS-1 cells (SDS-PAGE/Western blot); format: cell-based; conditions: 24 h; for effect on lovastatin-induced mobility shift of Ras: COS-1 cells treated with lovastatin
Method: FIG. 3. Detection of F-azide modified Ras and HDJ-2 by mobility-shift assay. Mobility-shift assay of Ras (A) and HDJ-2 (B). COS-1 cells were labeled with the indicated compounds for 24 h, the cell lysate were resolved in SDS-PAGE and probed using anti-Ras and anti-HDJ-2 antibodies, respectively. The letters, “u” and “p”, indicate the unmodified and isoprenylated forms of the protein, respectively.
To determine if the cell will process exogenous azido-farnesyl substrates, metabolic labeling of cells was carried out with synthetic substrates, either FPP azide or F-azide-OH, and mobility-shift assays were performed for Ras and HDJ-2 in order to determine if they are posttranslationally modified. Unprocessed Ras and HDJ-2 move more slowly than their farnesylated isoforms, therefore allowing separation in SDS-PAGE and subsequent detection by Western blotting analysis (James, 1994; Adjei, 2000).
COS-1 cells were grown in Dulbecco's modified Eagle's medium supplemented with 10% fetal bovine serum, 1% penicillin/streptomycin. When cells reached to 70% confluence, lovastatin was added and incubated for suitable amount of time prior to adding FPP azide.
Cells were harvested and lysed in 1 ml of lysis buffer (50 mM HEPES pH 7.6, 250 mM sodium chloride, 1.5 mM magnesium chloride, 1 mM EDTA, 10% (v/v) glycerol, 1% Triton X-100, and protease inhibitor cocktail (Roche Molecular Biochemicals, Indianapolis, Ind.)). The protein lystes were resolved in a 15% SDS-polyacrylamide gel, and transferred to PVDF membrane. The membrane was washed with TBST buffer (0.1% Tween 20, 150 mM NaCl, 25 mM TrisCl, pH 7.5), blocked for 2 h with a solution containing 5% (w/v) dried nonfat milk in TTBS, and immunoblotted for 2 h with an antibody in a blocking buffer (5% BSA in TTBS). After washing 4 times with TBST with changes every 15 min., the membrane was incubated with HRP-conjugated secondary antibody in TBST (1:5000 dilution) with 5% non-fat milk. The membrane was washed again for 4 times in TBST and visualized by enhanced chemiluminescence.

[3] = system: Ras; assay: immunoprecipitation of Ras, conjugation to biotinylated phosphine capture reagent and Western blotting; format: cell-based; conditions: cells dosed with FPP-azide versus control cells
Excerpt: The resulting immunocomplexes were resolubilized in 1×SDS sample buffer and then subjected to conjugation reaction using biotinylated phosphine capture reagents, respectively. The free biotinylated capture reagent was removed by a desalting column, resolved in SDS-PAGE, and then detected by Western blotting analysis […]. Protein signals corresponding molecular weights of HDJ-2 and Ras were detected from the cells dosed with FPP-azide but not in the control cells.

[4] = system: cells; assay: growth rate of cells cultured in DMEM media with the labeling compounds; format: cell-based; conditions: DMEM media containing lovastatin, FPP-azide/F-azide-OH, and GG-OH together
Excerpt: Several lines of evidence indicate that F-azide modified proteins maintain the major characteristics of naturally farnesylated proteins. First, F-azide-modified Ras retains GTPase activity. Second, F-azide modification induced Ras' membrane association.

[5] = target: FTase (Homo sapiens, UniProt P49354+P49356); assay: in vitro farnesylation reaction of RC peptide (KKFFCAIS) with FTase, MALDI-TOF readout; format: biochemical
Chain of FTase (P49356 whole entry, one chain of several): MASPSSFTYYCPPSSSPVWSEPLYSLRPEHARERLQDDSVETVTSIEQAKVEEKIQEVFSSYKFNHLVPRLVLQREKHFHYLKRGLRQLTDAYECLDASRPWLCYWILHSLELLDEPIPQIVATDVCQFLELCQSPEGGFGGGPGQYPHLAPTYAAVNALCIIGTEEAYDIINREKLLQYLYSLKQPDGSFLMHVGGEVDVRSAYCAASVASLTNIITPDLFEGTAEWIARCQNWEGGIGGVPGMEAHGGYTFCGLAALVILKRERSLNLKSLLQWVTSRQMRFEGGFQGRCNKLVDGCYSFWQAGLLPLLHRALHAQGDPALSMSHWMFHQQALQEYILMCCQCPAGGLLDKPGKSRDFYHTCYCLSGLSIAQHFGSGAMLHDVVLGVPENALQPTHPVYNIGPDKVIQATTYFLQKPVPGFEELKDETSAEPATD
Method: FIG. 2. FPP azide is a substrate for in vitro farnesylation reaction. MALDI-TOF mass spectra of RC peptide before (A) and after (B) in vitro farnesylation reaction. One hundred pmol RC-peptide (KKFFCAIS) were mixed with 3000 pmol FPP azide and 35 pmol FTase in 7 μl reaction buffer and incubated at 30° C. for 10 h. The F-azide modified RC-peptide was confirmed by mass spectrometry (m/z, 1191).
To determine whether farnsyltransferase can use FPP azide as a substrate for protein farnesylation, an in-vitro enzymatic reaction was carried out between a CAAX-box containing peptide (RC peptide, KKFFCAIS) and FPP azide.
The molecular masses of the peptide prior to and after enzymatic reaction were determined by MALDI-TOF mass spectrometry. F-azide-modified peptide was detected after enzymatic reaction (m/z, 1191 Da, a mass increase of 246 Da over RC peptide) (FIG. 2).
In a parallel study, an enzymatic reaction was carried out with FPP, the natural substrate for protein farnesylation.

[6] = system: COS cells; assay: global detection of F-azide modified proteins by Western blotting after conjugation to biotinylated phosphine capture reagent; format: cell-based; conditions: COS cells dosed with lovastatin and substrate; signals competed away by 0.1 mM D-biotin
Method: FIG. 4. Global detection of F-azide modified proteins by Western blotting analysis. COS cells were labeled with DMSO, or FPP N3 with or without lovastatin, as indicated, for 24 h. The protein lysates from the cells were precipitated by acetone/TCA method, redissolved in a buffer containing 2% SDS and PBS. The resulting solution was conjugated to biotinylated phosphine capture reagents or not, precipitated by acetone/TCA method again. The protein pellet was redissolved in 1×SDS sample buffer, resolved in SDS-PAGE, and detected by Western blotting analysis using streptavidin-conjugated HRP with or without biotin.
To further test whether proteins could be modified by F-azide and subsequently detected, Western blotting analysis was carried out in order to detect F-azide modified proteins. The protein whole-cell lysate from the cells dosed with lovastatin and FPP azide was subjected to conjugation reaction using biotinylated phosphine capture reagent. The resulting lysate was resolved using a SDS-PAGE gel and the biotinylated proteins detected by Western blotting analysis using HRP-conjugated streptavidin.
COS-1 cells were grown in Dulbecco's modified Eagle's medium supplemented with 10% fetal bovine serum, 1% penicillin/streptomycin. When cells reached to 70% confluence, lovastatin was added and incubated for suitable amount of time prior to adding FPP azide. […]

Q: Which “localisation of Ras” value ([1]; cells treated with lovastatin) does the source give for `CC[C@H](C)C(=O)O[C@H]1C[C@@H](C)C=C2C=C[C@H](C)[C@H](CC[C@@H]3C[C@@H](O)CC(=O)O3)[C@H]21` [lovastatin, reference compound] here?
A: mainly detected in cytosol

Q: What about the “mobility shift of Ras” value ([2]; COS-1 cells, compound alone) of the same compound?
A: induce mobility shift

Q: With `CC(C)=CCC/C(C)=C/CC/C(C)=C/CC/C(C)=C/CO` [GG-OH, geranylgeranyl alcohol, reference compound] as the compound, how does the “effect on lovastatin-induced mobility shift of Ras” value [2] read?
A: not affect the mobility shifts

Q: azido farnesyl diphosphate [FPP azide] was tested. Which “protein signal at the molecular weight of Ras” value [3] did it give?
A: detected

Q: What about the “growth rate of cells compared with cells cultured without the compounds” value [4] of the same compound?
A: comparable growth rate

Q: And the “membrane association of Ras” value [1]?
A: restore membrane association

Q: What about the “substrate for the farnesyltransfer reaction in vitro” value ([5]; RC peptide, FTase) of the same compound?
A: good substrate

Q: And the “reaction rate with RC peptide compared with FPP” value ([5]; in vitro enzymatic reaction, parallel study with natural substrate FPP)?
A: somewhat faster

Q: What about the “effect on lovastatin-induced mobility shift of Ras” value [2] of the same compound?
A: reversed the mobility shift

Q: And the “F-azide modified proteins detected by Western blotting with HRP-conjugated streptavidin” value [6]?
A: detection of multiple proteins

Q: Which results are given for `CC(=CCO)CCC=C(C)CCC=C(C)CN=[N+]=[N-]` [F-azide-OH, azido-farnesyl alcohol]?
A: growth rate of cells compared with cells cultured without the compounds [4]: comparable growth rate; membrane association of Ras [1]: restore membrane association; effect on lovastatin-induced mobility shift of Ras [2]: reversed the mobility shift; F-azide modified proteins detected by Western blotting with HRP-conjugated streptavidin [6]: detection of multiple proteins
